Measurements reported in patent US11096968B2, “Use of anti-aging glycoprotein for enhancing survival of neurosensory precursor cells” (PROTOKINETIX INC., priority 2016, dated 2021).

Tests used:
[1] = test system: photoreceptor precursor cells (PPCs); assay: MTT assay of cultured PPCs treated with increasing amounts of PGE2; assay type: cell-based, human; conditions: PPCs cultured 48 hours with increasing PGE2, up to 50 μM; n=4
Experimental: (§1) FIG. 2 illustrates that AAGP™ reduces the amount of prostaglandin E2 (PGE2) secreted by degenerating explants and the level of COX-2 expression. PGE2 is toxic to photoreceptor precursor cells (PPCs). (A) Rat retinal explants were cultured in explant medium with or without 4 mg/ml AAGP (n=3 for each condition). Explant media was replaced after 24 hours and replenished every other day with medium not containing AAGP. After ten days, explant medium was collected and processed for PGE2 ELISA. Histograms represent the amount of PGE2 (pg/ml) present in the explant medium. (B) COX-2 expression was assessed by RT-qPCR in stressed ARPE-19 cells in the presence or absence of 4 mg/ml AAGP (n=4). Histograms represent fold change in COX-2 expression, normalized to GAPDH. […]
Firstly, the amount of PGE2 produced is determined within the ex vivo system under normal culture conditions and after media is supplemented with 4 mg/ml AAGP for the first 24 hours of co-culture. Three equal-sized retinal quadrants, measuring ˜10 mm^2 each, and are analyzed for each condition. Explant media are collected at the end of 10 days and assessed for concentration of PGE2 by enzyme-linked immunosorbent assay (ELISA; R&D Systems). PGE2 induced reduction in metabolic activity, contributing to cell death, is assessed in PPCs cultured in isolation using a Thiazolyl Blue Tetrazolium Bromide (MTT) assay (Sigma). […]

[2] = test system: prostaglandin E2 (PGE2) secreted by degenerating retinal explants; assay: PGE2 ELISA of explant medium from ex vivo retinal explant/RPE co-culture; assay type: cell-based, rat; conditions: 4 mg/ml AAGP present for the first day, medium collected after 10 days of co-culture; n=3; p<0.05; without AAGP ~20 pg/ml
Experimental: as §1
Firstly, the amount of PGE2 produced is determined within the ex vivo system under normal culture conditions and after media is supplemented with 4 mg/ml AAGP for the first 24 hours of co-culture. Three equal-sized retinal quadrants, measuring ˜10 mm^2 each, and are analyzed for each condition. Explant media are collected at the end of 10 days and assessed for concentration of PGE2 by enzyme-linked immunosorbent assay (ELISA; R&D Systems). PGE2 induced reduction in metabolic activity, contributing to cell death, is assessed in PPCs cultured in isolation using a Thiazolyl Blue Tetrazolium Bromide (MTT) assay (Sigma).

[3] = test system: photoreceptor precursor cells (PPCs); assay: PPC survival in ex vivo co-culture system, viable labelled PPCs counted by FACS; assay type: cell-based, human; conditions: PPCs pre-treated 24 hours with 4 mg/ml AAGP, 10 days of co-culture
Experimental: FIG. 3 illustrates that Cell survival is enhanced by pre-incubation with AAGP™. Untreated or AAGP™-treated PPCs are fluorescently labelled and placed between retinal explants and RPE for ten days (n=4). Live PPCs are separated by Fluorescence-Activated Cell Sorting and the proportion of cells surviving after 10 days of co-culture was calculated. Percent cell survival of untreated and AAGP-treated PPCs was plotted ( ? ) and for each condition the average±SEM is represented by a thick black line.
To determine whether AAGP™ improves PPC survival in the ex vivo system, PPC cell viability is assessed with and without pre-treating cell grafts with AAGP™ for 24 hours prior to inclusion within the ex vivo system. PPCs are labelled with 20 μM CellTrace™ Far Red DDAO-SE (Life Technologies). […] After 10 days, the components of the co-culture system are enzymatically dissociated into single cell suspensions and the number of viable PPCs is assessed by Fluorescence-Activated Cell Sorting (FACS; Influx Sorter; BD Biosciences).
Finally, the viability of PPCs in the ex vivo system is tested. […] Ten days later, the co-cultured components were dissociated into single cells and viable PPCs (labeled red) were separated by Fluorescence activated cell sorting (FACS, FIG. 3). The proportion of live cells remaining after 10 days of co-culture is calculated. […]

PPCs = assay: Toxicity of AAGP to PPCs (unpublished data); assay type: cell-based, human; conditions: 4 mg/ml
Experimental: Now referring to FIG. 1, within the ex vivo system, rat neurosensory retinal explants are incubated upon human embryonic stem cells (hESC) derived retinal pigment epithelium (RPE). Neurosensory retina was obtained from the S334ter-4 model of retinal degeneration (Chen et al, 1995) and cultured within the system for 10 days (for detailed experimental design see Yanai et al., 2015). Rodent retinal tissue collection was carried out with approval of the Animal Care Committee at the University of British Columbia and in accordance with the Association for Research in Vision and Ophthalmology Statement for the Use of Animals in Ophthalmic and Vision Research. Throughout the present study, AAGP™ was used at 4 mg/ml, after it was confirmed it was not toxic to PPCs at this concentration (unpublished data).

[4] = test system: COX-2 expression in stressed ARPE-19 cells; assay: COX-2 expression by RT-qPCR in ARPE-19 cell stress assay (IL-1β followed by ATP); assay type: cell-based, human; conditions: stressed ARPE-19 cells (17 ng/ml IL-1β 8 h, then 5 mM ATP 1 h) in presence of 4 mg/ml AAGP; normalized to GAPDH; n=4
Experimental: as §1, with “GAPDH. (C) Cultured PPCs were treated with increasing amounts of PGE2 for 48 hours, followed by the MTT assay (n=4).” for “GAPDH.”
To determine whether AAGP™ inhibits COX-2 expression, ARPE-19 cells (Dunn et al., 1996) are treated with 17 ng/ml Interleukin 1β (IL-1β; Sigma; Lukiw et al., 2006) for 8 hours and then added 5 mM ATP for 1 hour to further induce cell stress (Sigma; Mehta et al., 2001). […] COX-2 expression is assessed using Reverse Transcription Quantitative Polymerase Chain Reaction (RT-qPCR) with the TaqMan® primer/probe system, Fast Advanced Master Mix and the ViiA™ 7 Real Time PCR system (Applied Biosystems). […]

SMILES | reduction of cell survival (MTT) [1] | amount of PGE2 in explant medium [2] [pg/mL] | increase in average cell viability vs. untreated PPCs [3] [fold] | toxicity to PPCs (PPCs) | decline in COX-2 expression [4]
CCCCC[C@H](O)/C=C/[C@H]1[C@H](O)CC(=O)[C@@H]1C/C=C\CCCC(=O)O [PGE2, prostaglandin E2] | up to 44% |  |  |  | 
C[C@H](NC(=O)[C@H](C)NC(=O)[C@@H](N)CCCCNC(=O)C(F)(F)C1(O)O[C@H](CO)[C@H](O)[C@H](O)[C@H]1O)C(=O)O (some centres unmarked) [AAGP™] |  | ~7.5 | ~3 | not toxic | at least 13.3±4.5 fold
